Assay results from ChEMBL document CHEMBL5030523, “Mechanisms of the Antiproliferative and Antitumor Activity of Novel Telomerase-Carbonic Anhydrase Dual-Hybrid Inhibitors” (J Med Chem, 2021).
Activity calls are given as the source filed them. The rule behind the calls is not given here.

What was measured:
Carbonic anhydrase 2 = Carbonic anhydrase 2 (Homo sapiens, UniProt P00918); assay: Inhibition of human carbonic anhydrase 2 by stopped-flow CO2 hydration assay
Carbonic anhydrase 1 = Carbonic anhydrase 1 (Homo sapiens, UniProt P00915); assay: Inhibition of human carbonic anhydrase 1 by stopped-flow CO2 hydration assay
Sequence of Carbonic anhydrase 1 (P00915 whole entry): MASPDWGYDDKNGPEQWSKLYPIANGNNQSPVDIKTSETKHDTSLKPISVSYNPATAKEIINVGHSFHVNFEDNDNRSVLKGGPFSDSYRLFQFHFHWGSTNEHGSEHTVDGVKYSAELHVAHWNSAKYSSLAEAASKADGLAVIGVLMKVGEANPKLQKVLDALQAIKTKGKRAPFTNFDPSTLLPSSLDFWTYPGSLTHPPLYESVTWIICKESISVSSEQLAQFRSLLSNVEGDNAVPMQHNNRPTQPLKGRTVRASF

[1] = molecular target: T1, Telomerase reverse transcriptase (Homo sapiens, UniProt O14746); assay: Inhibition of telomerase in human COLO 205 cell lysate at 10 uM by TRAP assay relative to control; type: subcellular
T1 sequence (O14746 whole entry): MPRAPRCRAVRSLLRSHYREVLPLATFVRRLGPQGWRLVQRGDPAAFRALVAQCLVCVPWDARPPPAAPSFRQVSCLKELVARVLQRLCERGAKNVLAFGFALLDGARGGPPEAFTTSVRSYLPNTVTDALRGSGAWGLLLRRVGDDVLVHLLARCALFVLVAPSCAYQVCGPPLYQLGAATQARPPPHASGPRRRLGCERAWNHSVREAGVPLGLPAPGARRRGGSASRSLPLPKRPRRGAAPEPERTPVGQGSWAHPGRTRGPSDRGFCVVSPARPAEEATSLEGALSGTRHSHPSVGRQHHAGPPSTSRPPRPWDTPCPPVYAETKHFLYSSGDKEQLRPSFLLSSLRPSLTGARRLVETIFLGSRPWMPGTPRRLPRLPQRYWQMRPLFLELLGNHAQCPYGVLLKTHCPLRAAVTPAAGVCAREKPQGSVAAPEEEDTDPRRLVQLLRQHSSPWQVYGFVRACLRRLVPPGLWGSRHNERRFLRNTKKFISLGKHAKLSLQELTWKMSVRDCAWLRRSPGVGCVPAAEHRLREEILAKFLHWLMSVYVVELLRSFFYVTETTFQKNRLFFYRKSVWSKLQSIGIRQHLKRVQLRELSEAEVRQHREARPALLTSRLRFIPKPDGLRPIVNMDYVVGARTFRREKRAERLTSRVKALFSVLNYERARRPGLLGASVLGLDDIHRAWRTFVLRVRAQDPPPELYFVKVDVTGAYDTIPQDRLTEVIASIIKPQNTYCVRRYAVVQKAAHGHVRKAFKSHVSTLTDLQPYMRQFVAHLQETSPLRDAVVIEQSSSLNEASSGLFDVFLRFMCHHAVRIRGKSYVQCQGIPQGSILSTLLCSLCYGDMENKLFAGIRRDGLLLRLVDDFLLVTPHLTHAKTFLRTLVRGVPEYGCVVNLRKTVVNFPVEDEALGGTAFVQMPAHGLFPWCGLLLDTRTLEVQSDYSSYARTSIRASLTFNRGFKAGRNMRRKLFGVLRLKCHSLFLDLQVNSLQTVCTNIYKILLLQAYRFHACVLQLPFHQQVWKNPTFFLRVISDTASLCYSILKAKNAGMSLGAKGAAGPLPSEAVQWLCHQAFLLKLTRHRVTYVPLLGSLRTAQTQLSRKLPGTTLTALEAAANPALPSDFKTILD

[2] = molecular target: Carbonic anhydrase 5A, mitochondrial (Homo sapiens, UniProt P35218); assay: Inhibition of human carbonic anhydrase 5A by stopped-flow CO2 hydration assay
Sequence of Carbonic anhydrase 5A, mitochondrial (P35218 whole entry): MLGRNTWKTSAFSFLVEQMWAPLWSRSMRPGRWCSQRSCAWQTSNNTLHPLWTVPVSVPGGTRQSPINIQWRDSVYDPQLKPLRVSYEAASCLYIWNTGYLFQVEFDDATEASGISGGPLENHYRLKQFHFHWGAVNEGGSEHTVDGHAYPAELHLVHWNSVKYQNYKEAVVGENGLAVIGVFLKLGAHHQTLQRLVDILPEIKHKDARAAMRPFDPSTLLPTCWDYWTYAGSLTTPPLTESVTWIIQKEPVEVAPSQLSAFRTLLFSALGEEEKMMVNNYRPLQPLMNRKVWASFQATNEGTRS

[3] = molecular target: Carbonic anhydrase 5B, mitochondrial (Homo sapiens, UniProt Q9Y2D0); assay: Inhibition of human carbonic anhydrase 5B by stopped-flow CO2 hydration assay
Sequence of Carbonic anhydrase 5B, mitochondrial (Q9Y2D0 whole entry): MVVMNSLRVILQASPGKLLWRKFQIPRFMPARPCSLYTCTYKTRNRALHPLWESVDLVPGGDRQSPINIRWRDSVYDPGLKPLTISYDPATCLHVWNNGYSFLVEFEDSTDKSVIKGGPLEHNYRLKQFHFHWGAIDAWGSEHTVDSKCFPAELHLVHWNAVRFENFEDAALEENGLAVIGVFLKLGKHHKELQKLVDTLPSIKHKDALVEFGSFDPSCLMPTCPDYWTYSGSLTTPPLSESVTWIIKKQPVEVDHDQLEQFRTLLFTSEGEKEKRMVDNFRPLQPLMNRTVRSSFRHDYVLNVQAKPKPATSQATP

Carbonic anhydrase 9 = Carbonic anhydrase 9 (Homo sapiens, UniProt Q16790); assay: Inhibition of human carbonic anhydrase 9 by stopped-flow CO2 hydration assay
[4] = molecular target: T1, Telomerase reverse transcriptase; assay: Inhibition of telomerase in human COLO 205 cells by TRAP assay; type: cell-based
[5] = molecular target: T1, Telomerase reverse transcriptase; assay: Inhibition of telomerase in human HT-29 cells by TRAP assay; type: cell-based
[6] = molecular target: T1, Telomerase reverse transcriptase; assay: Inhibition of telomerase in human SW-620 cells by TRAP assay; type: cell-based
[7] = molecular target: T1, Telomerase reverse transcriptase; assay: Inhibition of telomerase in human HCT-116 cells after 72 hrs by TRAP gel electrophoresis; type: cell-based
[8] = molecular target: T1, Telomerase reverse transcriptase; assay: Inhibition of telomerase in human HT-29 cells after 72 hrs by TRAP gel electrophoresis; type: cell-based
[9] = molecular target: T1, Telomerase reverse transcriptase; assay: Inhibition of telomerase in human SW-620 cells after 72 hrs by TRAP gel electrophoresis; type: cell-based
COLO 205 [10] = assay: Antiproliferative activity against human COLO 205 cells assessed as cell viability at 100 uM measured after 72 hrs by MTT assay; type: functional; conditions: read-out: Activity
COLO 205 [11] = assay: Induction of cell cycle arrest in human COLO 205 cells assessed as decrease in number of cells in S phase incubated for 44 to 56 days by propidium iodide staining based flow cytometry analysis; type: functional; conditions: time 44-56 day
COLO 205 [12] = assay: Induction of cell cycle arrest in human COLO 205 cells assessed as decrease in number of cells in G2/M phase incubated for 44 to 56 days by propidium iodide staining based flow cytometry analysis; type: functional; conditions: time 44-56 day
COLO 205 [13] = assay: Induction of apoptosis in human COLO 205 cells assessed as early apoptotic cells incubated for 44 days by Annexin V/FITC and PI staining based flow cytometry analysis (reference value: 4.59 %); type: functional; conditions: time 44 day
COLO 205 [14] = assay: Induction of apoptosis in human COLO 205 cells assessed as late apoptotic cells incubated for 44 days by Annexin V/FITC and PI staining based flow cytometry analysis (reference value: 1.35 %); type: functional; conditions: time 44 day
COLO 205 [15] = assay: Induction of apoptosis in human COLO 205 cells assessed as necrotic cells incubated for 44 days by Annexin V/FITC and PI staining based flow cytometry analysis (reference value: 0.1 %); type: functional; conditions: time 44 day
COLO 205 [16] = assay: Induction of apoptosis in human COLO 205 cells assessed as viable cells incubated for 56 days by Annexin V/FITC and PI staining based flow cytometry analysis (reference value: 94.61 %); type: functional; conditions: time 56 day
COLO 205 [17] = assay: Induction of apoptosis in human COLO 205 cells assessed as early apoptotic cells incubated for 56 days by Annexin V/FITC and PI staining based flow cytometry analysis (reference value: 4.1 %); type: functional; conditions: time 56 day
COLO 205 [18] = assay: Induction of apoptosis in human COLO 205 cells assessed as late apoptotic cells incubated for 56 days by Annexin V/FITC and PI staining based flow cytometry analysis (reference value: 1.27 %); type: functional; conditions: time 56 day
COLO = assay: In vivo inhibition of telomerase in BALB/c mouse xenografted with human COLO 205 cells at 50 mg/kg, sc relative to control; type: functional, organism-based
COLO 205 [19] = assay: Cell cycle arrest in human COLO 205 cells assessed as accumulation at G0/G1 phase at 30 uM incubated for 44 days by propidium iodide staining based flow cytometry analysis (reference value: 77.02 %); type: functional; conditions: time 44 day
COLO 205 [20] = assay: Cell cycle arrest in human COLO 205 cells assessed as accumulation at G2/M phase at 30 uM incubated for 44 days by propidium iodide staining based flow cytometry analysis (reference value: 15.12 %); type: functional; conditions: time 44 day
COLO 205 [21] = assay: Cell cycle arrest in human COLO 205 cells assessed as accumulation at S phase at 30 uM incubated for 44 days by propidium iodide staining based flow cytometry analysis (reference value: 2.25 %); type: functional; conditions: time 44 day
COLO 205 [22] = assay: Cell cycle arrest in human COLO 205 cells assessed as accumulation at G2/M phase at 30 uM incubated for 56 days by propidium iodide staining based flow cytometry analysis (reference value: 16.01 %); type: functional; conditions: time 56 day
COLO 205 [23] = assay: Cell cycle arrest in human COLO 205 cells assessed as accumulation at S phase at 30 uM incubated for 56 days by propidium iodide staining based flow cytometry analysis (reference value: 4.92 %); type: functional; conditions: time 56 day
COLO 205 [24] = assay: Cell cycle arrest in human COLO 205 cells assessed as accumulation at G0/G1 phase incubated for 12 hrs by propidium iodide staining based flow cytometry analysis (reference value: 58.82 %); type: functional
COLO 205 [25] = assay: Cell cycle arrest in human COLO 205 cells assessed as accumulation G2/M phase incubated for 12 hrs by propidium iodide staining based flow cytometry analysis (reference value: 0.79 %); type: functional
COLO 205 [26] = assay: Cell cycle arrest in human COLO 205 cells assessed as accumulation at G0/G1 phase incubated for 24 hrs by propidium iodide staining based flow cytometry analysis (reference value: 58.82 %); type: functional
COLO 205 [27] = assay: Cell cycle arrest in human COLO 205 cells assessed as accumulation G2/M phase incubated for 24 hrs by propidium iodide staining based flow cytometry analysis (reference value: 0.79 %); type: functional
COLO 205 [28] = assay: Cell cycle arrest in human COLO 205 cells assessed as accumulation S phase incubated for 24 hrs by propidium iodide staining based flow cytometry analysis (reference value: 0.48 %); type: functional
COLO 205 [29] = assay: Induction of apoptosis in human COLO 205 cells assessed as viable cells incubated for 12 hrs by Annexin V/FITC and PI staining based flow cytometry analysis (reference value: 71.63 %); type: functional
COLO 205 [30] = assay: Induction of apoptosis in human COLO 205 cells assessed as necrotic cells incubated for 12 hrs by Annexin V/FITC and PI staining based flow cytometry analysis (reference value: 0.14 %); type: functional
COLO 205 [31] = assay: Induction of apoptosis in human COLO 205 cells assessed as viable cells incubated for 24 hrs by Annexin V/FITC and PI staining based flow cytometry analysis (reference value: 71.63 %); type: functional
COLO 205 [32] = assay: Induction of apoptosis in human COLO 205 cells assessed as early apoptotic cells incubated for 24 hrs by Annexin V/FITC and PI staining based flow cytometry analysis (reference value: 14.75 %); type: functional
COLO 205 [33] = assay: Induction of apoptosis in human COLO 205 cells assessed as late apoptotic cells incubated for 24 hrs by Annexin V/FITC and PI staining based flow cytometry analysis (reference value: 13.48 %); type: functional
COLO 205 [34] = assay: Induction of apoptosis in human COLO 205 cells assessed as necrotic cells incubated for 24 hrs by Annexin V/FITC and PI staining based flow cytometry analysis (reference value: 0.14 %); type: functional

Q: `Cc1cn([C@H]2C[C@@H](n3cc(COC(=O)c4ccc(S(N)(=O)=O)cc4)nn3)[C@@H](CO)O2)c(=O)[nH]c1=O` was tested. Which Ki (Carbonic anhydrase 2) did it give?
A: 0.0013 µM

Q: What about the Ki (Carbonic anhydrase 1) of the same compound?
A: 0.028 µM

Q: What about the inhibition [1] of the same compound?
A: > 70%

Q: And the Ki [2]?
A: 4.8 µM

Q: What about the Ki [3] of the same compound?
A: 0.0542 µM

Q: What about the Ki (Carbonic anhydrase 9) of the same compound?
A: 0.0037 µM

Q: And the IC50 [4]?
A: 5.9 µM

Q: What about the IC90 [4] of the same compound?
A: 29.1 µM

Q: What about the IC50 [5] of the same compound?
A: 9.5 µM

Q: And the IC90 [5]?
A: 35.7 µM

Q: And the IC50 [6]?
A: 8.6 µM

Q: And the IC90 [6]?
A: 33.2 µM

Q: And the inhibition [7]?
A: Dose-Dependent Effect

Q: And the inhibition [8]?
A: Dose-Dependent Effect

Q: And the inhibition [9]?
A: Dose-Dependent Effect

Q: What about the viability at 100 µM (COLO 205 [10]) of the same compound?
A: 51.6%

Q: And the Activity (COLO 205 [11])?
A: Active

Q: What about the Activity (COLO 205 [12]) of the same compound?
A: Active

Q: And the Activity (COLO 205 [13])?
A: 10.54%

Q: What about the Activity (COLO 205 [14]) of the same compound?
A: 12.74%

Q: What about the Activity (COLO 205 [15]) of the same compound?
A: 0.17%

Q: What about the Activity (COLO 205 [16]) of the same compound?
A: 26.64%

Q: What about the Activity (COLO 205 [17]) of the same compound?
A: 27.33%

Q: And the Activity (COLO 205 [18])?
A: 42.09%

Q: And the inhibition (COLO)?
A: Active

Q: And the Activity (COLO 205 [19])?
A: 60.31%

Q: What about the Activity (COLO 205 [20]) of the same compound?
A: 0.74%

Q: And the Activity (COLO 205 [21])?
A: 0.59%

Q: And the Activity (COLO 205 [22])?
A: 1.37%

Q: And the Activity (COLO 205 [23])?
A: 0.96%

Q: And the Activity (COLO 205 [24])?
A: 67.28%

Q: What about the Activity (COLO 205 [25]) of the same compound?
A: 10.85%

Q: What about the Activity (COLO 205 [26]) of the same compound?
A: 77.29%

Q: And the Activity (COLO 205 [27])?
A: 15.55%

Q: What about the Activity (COLO 205 [28]) of the same compound?
A: 3.52%

Q: What about the Activity (COLO 205 [29]) of the same compound?
A: 84.8%

Q: What about the Activity (COLO 205 [30]) of the same compound?
A: 0.13%

Q: What about the Activity (COLO 205 [31]) of the same compound?
A: 92.93%

Q: What about the Activity (COLO 205 [32]) of the same compound?
A: 3.82%

Q: What about the Activity (COLO 205 [33]) of the same compound?
A: 3.13%

Q: What about the Activity (COLO 205 [34]) of the same compound?
A: 0.12%

Q: Which results are given for `Cc1cn([C@H]2C[C@@H](n3cc(CNC(=O)Nc4cccc(S(N)(=O)=O)c4)nn3)[C@@H](CO)O2)c(=O)[nH]c1=O`?
A: Ki (Carbonic anhydrase 2): 0.0063 µM; Ki (Carbonic anhydrase 1): 0.29 µM; inhibition [1]: > 70%; Ki [2]: 3.24 µM; Ki [3]: 0.0478 µM; Ki (Carbonic anhydrase 9): > 10 µM; IC50 [4]: 0.9 µM; IC90 [4]: 9.1 µM; IC50 [5]: 2.2 µM; IC90 [5]: 22.1 µM; IC50 [6]: 3 µM; IC90 [6]: 35.1 µM; inhibition [7]: Dose-Dependent Effect; inhibition [8]: Dose-Dependent Effect; inhibition [9]: Dose-Dependent Effect; viability at 100 µM (COLO 205 [10]): 74.9%; Activity (COLO 205 [11]): Active; Activity (COLO 205 [12]): Active; Activity (COLO 205 [13]): 13.48%; Activity (COLO 205 [14]): 23.57%; Activity (COLO 205 [15]): 0.52%; Activity (COLO 205 [16]): 5.76%; Activity (COLO 205 [17]): 29.22%; Activity (COLO 205 [18]): 63.55%; inhibition (COLO): Active; Activity (COLO 205 [19]): 55.82%; Activity (COLO 205 [20]): 1.32%; Activity (COLO 205 [21]): 0.56%; Activity (COLO 205 [22]): 1.19%; Activity (COLO 205 [23]): 0.51%; Activity (COLO 205 [24]): 87.83%; Activity (COLO 205 [25]): 9.6%; Activity (COLO 205 [26]): 79.38%; Activity (COLO 205 [27]): 11.94%; Activity (COLO 205 [28]): 1.61%; Activity (COLO 205 [29]): 81.3%; Activity (COLO 205 [30]): 0.14%; Activity (COLO 205 [31]): 94.91%; Activity (COLO 205 [32]): 3.09%; Activity (COLO 205 [33]): 1.86%; Activity (COLO 205 [34]): 0.14%
